Laboratory results reported in patent publication US5164411A, “Pyrethroid compositions” (priority 1991, dated 1992).
Values after ≈ are worked out from the molar mass of the structure shown.

Columns and labels:
[1] = system: cabbage looper (Trichoplusia ni); assay: Foliar evaluation, cabbage looper (CL); assay type: in vivo; conditions: for LC50: Trichoplusia ni, foliar, pinto beans, mortality at 48 hours
Method: (§1) Cypermethrin and sigma-cypermethrin were tested by foliar application at various concentrations in aqueous solutions containing 9.75% acetone and 0.25% octylphenoxypolyethoxyethanol. Insect species utilized included the cabbage looper (Trichoplusia ni), southern armyworm (Spodoptera eridania), Mexican bean beetle (Epilachna varivestis), tobacco budworm (Heliothis virescens), and corn earworm (Heliothis zea).
(§2) For all insects, pinto beans (Phaseolus vulgaris) plants were treated with the test solutions. The test solutions were applied with a sprayer to the upper and lower surfaces of the plant leaves to runoff. The plants were then allowed to dry and were severed at the base of the stem before being placed in cups. Ten second instar individuals of the appropriate insect species, except the tobacco budworm and corn earworm, were placed in each cup and the cup covered. Tests with the tobacco budworm and corn earworm used four replicates with each replicate containing five second instar insects. In all tests, mortality was read 48 hours later. The sigma-cypermethrin used in the foliar evaluations was the product of Example 2.

[2] = system: southern armyworm (Spodoptera eridania); assay: Foliar evaluation, southern armyworm (SAW); assay type: in vivo; conditions: for LC50: Spodoptera eridania, foliar, pinto beans, mortality at 48 hours
Method: as §1, §2

[3] = system: tobacco budworm (Heliothis virescens); assay: Foliar evaluation, tobacco budworm (TBW); assay type: in vivo; conditions: for LC50: Heliothis virescens, foliar, pinto beans, mortality at 48 hours
Method: as §1, §2

[4] = system: tobacco budworm strain resistant to pyrethroids; assay: Foliar evaluation, pyrethroid-resistant tobacco budworm (TBW-R); assay type: in vivo, Heliothis virescens; conditions: for LC50: Heliothis virescens, foliar, pinto beans, mortality at 48 hours
Method: as §1, §2

[5] = system: corn earworm (Heliothis zea); assay: Foliar evaluation, corn earworm (CEW); assay type: in vivo; conditions: for LC50: Helicoverpa zea, foliar, pinto beans, mortality at 48 hours
Method: as §1, §2

rats [6] = assay: 90-day feeding study; assay type: in vivo; conditions: for no observable effect level (NOEL): in diet, at least ninety days
Method: In the 90-day feeding study, conducted in compliance with EPA guideline 82-1, the compound under test was administered continuously in the diet to groups of rats for at least ninety days at concentrations of 0, 150, and 1500 ppm to groups of fifteen Sprague-Dawley rats for cypermethrin and 0, 10, 50, 150, 250, 500, and 900 ppm to groups of ten Fisher 344 rats for sigma-cypermethrin. (The rates for sigma-cypermethrin were lower, because it was expected to be more toxic than cypermethrin.) The cypermethrin isomer content (weight %) of the sigma-cypermethrin technical product used in this study was total isomers--88.2%, S-isomers--82%, cis/trans ratio--53/47. Individual body weight and food consumption values were recorded weekly. At termination, hematology and clinical chemistry determinations were conducted and organ weights were obtained for adrenals, brain, heart, kidneys, liver, and ovaries or testes. Histopathological examination of approximately 40 tissues was conducted on all animals in the control group and in the highest dose group in the cypermethrin study and in the highest two groups (500 and 900 ppm) in the sigma-cypermethrin study. In addition, histopathological examination was performed on the lungs, liver, and kidneys of animals in the mid-dose groups of both studies ([…] and 10, 50, 150, and 250 ppm for sigma-cypermethrin). An ophthalmic examination was conducted on all animals prior to initiation of treatment and prior to final sacrifice.

rats [7] = assay: Multigeneration study; assay type: in vivo
Method: Multigeneration studies were conducted in compliance with EPA guideline 83-4 and provide information on reproductive parameters as well as neonatal morbidity and mortality for multiple generations. Wistar rats were fed diets, throughout the study, containing 0, 50, 150, and 750 ppm of cypermethrin (the top dose level was 1000 ppm for the first 12 weeks, but was lowered to 750 ppm for the remainder of the study owing to toxicity). Similarly, Sprague-Dawley rats were fed diets containing 0, 7.5, 25, 100, 375, and 750 ppm of sigma-cypermethrin. (Again, the rates are lower for sigma-cypermethrin, because it was expected to be more toxic.) The cypermethrin isomer content (weight %) of the sigma-cypermethrin technical product used in this study was total isomers--89.1%, S-isomers--82%, cis/trans ratio--51/49. […] Body weights and food consumption were recorded at regular intervals.
The breeding of parental and subsequent generations in each study was initiated with 30 females. In both studies appropriate dietary concentrations of test material were provided during cohabitation. Exposure of the parental males of each generation continued until a scheduled sacrifice following completion of the cohabitation periods, while exposure of parental females continued through to weaning of pups. Pups were weaned at postnatal day 28 in both studies.

Teratology = assay type: in vivo, Sprague-Dawley rat; conditions: rat, po; gavage in corn oil, once daily, gestation days 6 through 15; read-out: NOEL
Method: (§3) These tests were conducted in compliance with EPA guideline 83-3 for the purpose of determining the effects of the test materials on pregnancy and in utero development. The test materials were administered via gavage in corn oil once daily to female Sprague-Dawley rats on days 6 through 15 of presumed gestation. There were 25 animals per dose group. Dosages of 0, 17.5, 37.5, and 75 mg/kg for cypermethrin and 0, 5, 12.5, 25, and 35 mg/kg for sigma-cypermethrin were administered. The cypermethrin isomer content (weight %) of the sigma-cypermethrin technical product used in this study was total isomers--89.1%, S-isomers--82%, cis/trans ratio--51/49. The control animals (0 mg/kg) received corn oil during the treatment period. All dosages were adjusted daily on the basis of body weights.
(§4) Daily observations of the rats were made during the dosage and postdosage periods. On gestation day 20 to 21 the rats were sacrificed for examination of their uterine contents, including the number of live and dead fetuses and the number of resorptions. Fetuses were subsequently examined for malformations.

[8] = system: female Sprague-Dawley rats; assay: Teratology; assay type: in vivo, Sprague-Dawley rat; conditions: for embryotoxic or teratogenic effect: at any dose
Method: as §3, §4

[9] = Ninety-six-hour flow-through acute toxicity, rainbow trout; assay type: in vivo, Oncorhynchus mykiss; conditions: 96 h flow-through, well water
Method: (§5) Ninety-six-hour flow-through acute toxicity studies of both cypermethrin and sigma-cypermethrin were conducted in the rainbow trout (Oncorhynchus mykiss) and in the sheepshead minnow (Cyprinodon variagatus) to determine the median-lethal-concentration (LC50) resulting from continuous exposure. For the rainbow trout the exposure medium was well water; for the sheepshead minnow, filtered seawater. Each group of 20 fish (10 per replicate aquarium) was exposed either to one of five concentrations of pyrethroid delivered in a diluter system in dimethylformamide (DMF), to 30 μL/L DMF in the exposure medium (solvent control), or to the exposure medium alone (control). Observations for mortality, morbidity, and other overt signs of toxicity were determined at prescribed intervals. Concentrations of the test materials were measured at the beginning and end of the exposure using a validated HPLC method. The cypermethrin isomer content (weight %) of the sigma-cypermethrin technical product used in this study was total isomers--88.2%, S-isomers--82%, cis/trans ratio--53/47.

[10] = Ninety-six-hour flow-through acute toxicity, sheepshead minnow; assay type: in vivo, Cyprinodon variagatus; conditions: 96 h flow-through, filtered seawater
Method: as §5

SMILES	LC50 [1] [µg/mL]	LC50 [2] [µg/mL]	LC50 [3] [µg/mL]	LC50 [4] [µg/mL]	LC50 [5] [µg/mL]	no observable effect level (NOEL) (rats [6]) [ppm]	NOAEL (Teratology) [mg/kg]	embryotoxic or teratogenic effect [8]	LC50 at 96 h [9] [µg/mL]	LC50 at 96 h [10] [µg/mL]	also measured
CC1(C)C(C=C(Cl)Cl)C1C(=O)OC(C#N)c1cccc(Oc2ccccc2)c1 (stereo not drawn) [cypermethrin, (cyano)(3-phenoxyphenyl)methyl 3-(2,2-dichloroethenyl)-2,2-dimethylcyclopropanecarboxylate, reference compound]	2.3 (≈ 5.52 µM)	4.2 (≈ 10.1 µM)	7.3 (≈ 17.5 µM)	92 (≈ 221 µM)	7.3 (≈ 17.5 µM)	150	17.5	no embryotoxic or teratogenic effect	0.000897 (≈ 0.00215 µM)	0.00388 (≈ 0.00932 µM)	toxicity at top dose level (rats [7]; 1000 ppm in diet, first 12 weeks, lowered to 750 ppm): toxicity; NOEL (rats [7]; in diet, multiple generations): 50 ppm
CC1(C)C(C=C(Cl)Cl)C1C(=O)O[C@H](C#N)c1cccc(Oc2ccccc2)c1 (mixture of isomers) [sigma-cypermethrin, (S)(cyano)(3-phenoxyphenyl)methyl cis/trans-3-(2,2-dichloroethenyl)-2,2-dimethylcyclopropanecarboxylate]	1.4	1.8	4.4	43	3.9	250	12.5	no embryotoxic or teratogenic effect	0.00069	0.00237	Relative Potency ([1]; vs cypermethrin, CL): 1.6; Relative Potency ([2]; vs cypermethrin, SAW): 2.3; Relative Potency ([3]; vs cypermethrin, TBW): 1.7; Relative Potency ([4]; vs cypermethrin, TBW-R): 2.1; Relative Potency ([5]; vs cypermethrin, CEW): 1.9; amount required to show an effect on rats relative to that expected from effect on insects (rats [6]; 90-day feeding): more than three times; NOEL relative to the cypermethrin value (rats [6]; 90-day feeding, rats): more than one and a half times the cypermethrin value; mortality of F1 generation litters (rats [7]; 750 ppm in diet, 28-day lactation and first week postweaning): excessive mortality; NOEL relative to that of cypermethrin (rats [7]; multigeneration): twice that of cypermethrin; amount required to show an effect on rats relative to that expected from effect on insects (rats [7]; multigeneration): four times; amount required to show an effect on rats relative to that expected from effect on insects ([8]; teratology): 1.4 times
